According to patent publication US5807535A, “Metal complexes of hydroxyaryl containing aminocarboxylic acid chelating agents” (Australian Nuclear Science & Technology Organisation, priority 1992, dated 1998):
Each block holds one compound with its values, some of them ahead of it.

Assays:
[1] = Biodistribution of 99mTc complexes in mice; assay type: in vivo, Balb/c mice
Text: A series of derivatives incorporating carboxyl and phenolate donor groups (1-6) were synthesised by literature method and their radiolabelling characteristic and biological behaviour evaluated. Initial work involved an investigation of radiochemical properties of the ^99m Tc complexes of the ligands and their biodistribution in rats and mice (see Tables 1-6 and 8-12).
A typical method of radiolabelling of the chelator was achieved by dissolving the chelator in a basic solution of saline. The pH was then adjusted to approx. 6 with HCl. Excess stannous chloride was added to the resultant solution followed by one equivalent volume of sodium ^99m TcO4 (10-50 mCi/ml). Final concentration of the chelator was approx. 1 mg/ml. The efficacy of labelling was determined by ITLC-SG. For each product only one main radiochemical species was observed. Each complex was diluted to 15 μCi/100 μl with saline. […] (See FIGS. 1A and 1B).

[2] = Effect of pH on radiolabelling ligand (5) with 64/67Cu; assay type: physicochemical
Method: Radiolabelling with ^64/67 Cu was investigated with ligand (5) over a range of pHs (see Table B). Conditions employed are similar to that reported above for where the ^64/67 Cu in appropriate buffer was added directly to a buffered solution of ligand (5). Rate and percent of complexation was monitored over time by ITLC-SG. Mobile phase employed was methanol:water:ammonia (9:1: trace amounts). The copper complex moves with the solvent front while the free copper is retained at the origin.

biodistribution GIT ([1]; 1 min): 3.74 % Injected dose
biodistribution blood ([1]; 1 min): 23.14 % Injected dose
biodistribution bone ([1]; 1 min): 7.88 % Injected dose
biodistribution heart ([1]; 1 min): 0.49 % Injected dose
biodistribution kidney ([1]; 1 min): 8.04 % Injected dose
biodistribution liver ([1]; 1 min): 14.68 % Injected dose
biodistribution lungs ([1]; 1 min): 1.36 % Injected dose
biodistribution muscle ([1]; 1 min): 19.67 % Injected dose
biodistribution skin ([1]; 1 min): 13.37 % Injected dose
biodistribution spleen ([1]; 1 min): 0.19 % Injected dose
biodistribution stomach ([1]; 1 min): 0.67 % Injected dose
biodistribution tail ([1]; 1 min): 4.05 % Injected dose
biodistribution urine ([1]; 1 min): 0.09 % Injected dose
biodistribution GIT ([1]; 3 min): 4.86 % Injected dose
biodistribution blood ([1]; 3 min): 14.96 % Injected dose
biodistribution bone ([1]; 3 min): 6.29 % Injected dose
biodistribution heart ([1]; 3 min): 0.34 % Injected dose
biodistribution kidney ([1]; 3 min): 10.44 % Injected dose
biodistribution liver ([1]; 3 min): 14.52 % Injected dose
biodistribution lungs ([1]; 3 min): 1.19 % Injected dose
biodistribution muscle ([1]; 3 min): 14.89 % Injected dose
biodistribution skin ([1]; 3 min): 13.1 % Injected dose
biodistribution spleen ([1]; 3 min): 0.16 % Injected dose
biodistribution stomach ([1]; 3 min): 0.998 % Injected dose
biodistribution tail ([1]; 3 min): 6.89 % Injected dose
biodistribution urine ([1]; 3 min): 2.78 % Injected dose
biodistribution GIT ([1]; 5 min): 3.38 % Injected dose
biodistribution blood ([1]; 5 min): 7.4 % Injected dose
biodistribution bone ([1]; 5 min): 2.99 % Injected dose
biodistribution heart ([1]; 5 min): 0.22 % Injected dose
biodistribution kidney ([1]; 5 min): 5.45 % Injected dose
biodistribution liver ([1]; 5 min): 7.75 % Injected dose
biodistribution lungs ([1]; 5 min): 0.72 % Injected dose
biodistribution muscle ([1]; 5 min): 6.73 % Injected dose
biodistribution skin ([1]; 5 min): 7.96 % Injected dose
biodistribution spleen ([1]; 5 min): 0.07 % Injected dose
biodistribution stomach ([1]; 5 min): 0.6 % Injected dose
biodistribution tail ([1]; 5 min): 30.12 % Injected dose
biodistribution urine ([1]; 5 min): 1.06 % Injected dose
biodistribution GIT ([1]; 10 min): 8.11 % Injected dose
biodistribution blood ([1]; 10 min): 7.15 % Injected dose
biodistribution bone ([1]; 10 min): 2.76 % Injected dose
biodistribution heart ([1]; 10 min): 0.15 % Injected dose
biodistribution kidney ([1]; 10 min): 5.14 % Injected dose
biodistribution liver ([1]; 10 min): 7.95 % Injected dose
biodistribution lungs ([1]; 10 min): 0.53 % Injected dose
biodistribution muscle ([1]; 10 min): 8.73 % Injected dose
biodistribution skin ([1]; 10 min): 11.02 % Injected dose
biodistribution spleen ([1]; 10 min): 0.06 % Injected dose
biodistribution stomach ([1]; 10 min): 1.3 % Injected dose
biodistribution tail ([1]; 10 min): 18.31 % Injected dose
biodistribution urine ([1]; 10 min): 2.67 % Injected dose
biodistribution GIT ([1]; 30 min): 16.24 % Injected dose
biodistribution blood ([1]; 30 min): 3.58 % Injected dose
biodistribution bone ([1]; 30 min): 2.27 % Injected dose
biodistribution heart ([1]; 30 min): 0.09 % Injected dose
biodistribution kidney ([1]; 30 min): 4 % Injected dose
biodistribution liver ([1]; 30 min): 5.71 % Injected dose
biodistribution lungs ([1]; 30 min): 0.43 % Injected dose
biodistribution muscle ([1]; 30 min): 5.48 % Injected dose
biodistribution skin ([1]; 30 min): 5.58 % Injected dose
biodistribution spleen ([1]; 30 min): 0.05 % Injected dose
biodistribution stomach ([1]; 30 min): 2.06 % Injected dose
biodistribution tail ([1]; 30 min): 7.67 % Injected dose
biodistribution urine ([1]; 30 min): 3.84 % Injected dose
SMILES: O=C(O)CN(CCN(CC(=O)O)CC(=O)Nc1ccc(Cl)cc1O)CC(=O)Nc1ccc(Cl)cc1O [Compound 2]

SMILES: CC(C)(C)c1ccc(O)c(NC(=O)CN(CCN(CC(=O)O)CC(=O)Nc2cc(C(C)(C)C)ccc2O)CC(=O)O)c1 [Compound 4]
biodistribution GIT ([1]; 1 min): 3.96 % Injected dose
biodistribution bladder ([1]; 1 min): 0.06 % Injected dose
biodistribution blood ([1]; 1 min): 34.01 % Injected dose
biodistribution bone ([1]; 1 min): 6.4 % Injected dose
biodistribution heart ([1]; 1 min): 0.6 % Injected dose
biodistribution kidney ([1]; 1 min): 7.83 % Injected dose
biodistribution liver ([1]; 1 min): 31.82 % Injected dose
biodistribution lungs ([1]; 1 min): 1.29 % Injected dose
biodistribution muscle ([1]; 1 min): 11.85 % Injected dose
biodistribution skin ([1]; 1 min): 8.94 % Injected dose
biodistribution spleen ([1]; 1 min): 0.21 % Injected dose
biodistribution stomach ([1]; 1 min): 0.52 % Injected dose
biodistribution tail ([1]; 1 min): 4.62 % Injected dose
biodistribution urine ([1]; 1 min): 0 % Injected dose
biodistribution GIT ([1]; 3 min): 8.34 % Injected dose
biodistribution bladder ([1]; 3 min): 0.09 % Injected dose
biodistribution blood ([1]; 3 min): 12.06 % Injected dose
biodistribution bone ([1]; 3 min): 2.5 % Injected dose
biodistribution heart ([1]; 3 min): 0.22 % Injected dose
biodistribution kidney ([1]; 3 min): 6.27 % Injected dose
biodistribution liver ([1]; 3 min): 40.23 % Injected dose
biodistribution lungs ([1]; 3 min): 0.56 % Injected dose
biodistribution muscle ([1]; 3 min): 9.92 % Injected dose
biodistribution skin ([1]; 3 min): 9.02 % Injected dose
biodistribution spleen ([1]; 3 min): 0.12 % Injected dose
biodistribution stomach ([1]; 3 min): 0.61 % Injected dose
biodistribution tail ([1]; 3 min): 2.02 % Injected dose
biodistribution urine ([1]; 3 min): 0.84 % Injected dose
biodistribution GIT ([1]; 5 min): 13.7 % Injected dose
biodistribution bladder ([1]; 5 min): 0.04 % Injected dose
biodistribution blood ([1]; 5 min): 7.87 % Injected dose
biodistribution bone ([1]; 5 min): 2.84 % Injected dose
biodistribution heart ([1]; 5 min): 0.16 % Injected dose
biodistribution kidney ([1]; 5 min): 4.18 % Injected dose
biodistribution liver ([1]; 5 min): 30.24 % Injected dose
biodistribution lungs ([1]; 5 min): 0.68 % Injected dose
biodistribution muscle ([1]; 5 min): 7.77 % Injected dose
biodistribution skin ([1]; 5 min): 8.67 % Injected dose
biodistribution spleen ([1]; 5 min): 0.1 % Injected dose
biodistribution stomach ([1]; 5 min): 3.96 % Injected dose
biodistribution tail ([1]; 5 min): 4.63 % Injected dose
biodistribution urine ([1]; 5 min): 1.55 % Injected dose
biodistribution GIT ([1]; 10 min): 33.63 % Injected dose
biodistribution bladder ([1]; 10 min): 0.17 % Injected dose
biodistribution blood ([1]; 10 min): 5.04 % Injected dose
biodistribution bone ([1]; 10 min): 2.08 % Injected dose
biodistribution heart ([1]; 10 min): 0.13 % Injected dose
biodistribution kidney ([1]; 10 min): 3.57 % Injected dose
biodistribution liver ([1]; 10 min): 21.19 % Injected dose
biodistribution lungs ([1]; 10 min): 0.52 % Injected dose
biodistribution muscle ([1]; 10 min): 4.95 % Injected dose
biodistribution skin ([1]; 10 min): 7.3 % Injected dose
biodistribution spleen ([1]; 10 min): 0.07 % Injected dose
biodistribution stomach ([1]; 10 min): 0.7 % Injected dose
biodistribution tail ([1]; 10 min): 3.58 % Injected dose
biodistribution urine ([1]; 10 min): 4.27 % Injected dose
biodistribution GIT ([1]; 30 min): 39.97 % Injected dose
biodistribution bladder ([1]; 30 min): 0.08 % Injected dose
biodistribution blood ([1]; 30 min): 3.88 % Injected dose
biodistribution bone ([1]; 30 min): 1.67 % Injected dose
biodistribution heart ([1]; 30 min): 0.05 % Injected dose
biodistribution kidney ([1]; 30 min): 3.67 % Injected dose
biodistribution liver ([1]; 30 min): 12.48 % Injected dose
biodistribution lungs ([1]; 30 min): 0.26 % Injected dose
biodistribution muscle ([1]; 30 min): 3.35 % Injected dose
biodistribution skin ([1]; 30 min): 4 % Injected dose
biodistribution spleen ([1]; 30 min): 0.06 % Injected dose
biodistribution stomach ([1]; 30 min): 4.84 % Injected dose
biodistribution tail ([1]; 30 min): 1.91 % Injected dose
biodistribution urine ([1]; 30 min): 3.21 % Injected dose

rate of complexation ([2]; all pHs (pH 3.0-10.0)): complete within the first minute
complexation maintained for upto ([2]; pH 3.0-10.0): ≤ 2 h
biodistribution bone ([1]; 1 min): 6.02 % Injected dose
biodistribution kidney ([1]; 1 min): 9.08 % Injected dose
biodistribution liver ([1]; 1 min): 5.72 % Injected dose
biodistribution muscle ([1]; 1 min): 23.78 % Injected dose
biodistribution skin ([1]; 1 min): 18.09 % Injected dose
biodistribution spleen ([1]; 1 min): 0.14 % Injected dose
biodistribution urine ([1]; 1 min): 0 % Injected dose
biodistribution kidney ([1]; 3 min): 8.71 % Injected dose
biodistribution liver ([1]; 3 min): 5.04 % Injected dose
biodistribution muscle ([1]; 3 min): 15.39 % Injected dose
biodistribution skin ([1]; 3 min): 19.66 % Injected dose
biodistribution spleen ([1]; 3 min): 0.16 % Injected dose
biodistribution urine ([1]; 3 min): 2.97 % Injected dose
biodistribution kidney ([1]; 5 min): 6.71 % Injected dose
biodistribution liver ([1]; 5 min): 4.34 % Injected dose
biodistribution muscle ([1]; 5 min): 11.74 % Injected dose
biodistribution skin ([1]; 5 min): 19.83 % Injected dose
biodistribution spleen ([1]; 5 min): 0.12 % Injected dose
biodistribution urine ([1]; 5 min): 6.52 % Injected dose
biodistribution kidney ([1]; 10 min): 5.97 % Injected dose
biodistribution liver ([1]; 10 min): 5.34 % Injected dose
biodistribution muscle ([1]; 10 min): 9.67 % Injected dose
biodistribution skin ([1]; 10 min): 23.93 % Injected dose
biodistribution spleen ([1]; 10 min): 0.11 % Injected dose
biodistribution urine ([1]; 10 min): 10.66 % Injected dose
biodistribution kidney ([1]; 30 min): 3.75 % Injected dose
biodistribution liver ([1]; 30 min): 2.86 % Injected dose
biodistribution muscle ([1]; 30 min): 23.84 % Injected dose
biodistribution skin ([1]; 30 min): 17.37 % Injected dose
biodistribution spleen ([1]; 30 min): 0.06 % Injected dose
biodistribution urine ([1]; 30 min): 5.91 % Injected dose
SMILES: Nc1ccc(O)c(NC(=O)CN(CCN(CC(=O)O)CC(=O)Nc2cc(N)ccc2O)CC(=O)O)c1 [Compound 5]
